Values quoted from earlier work as cited in publication PMC2970821 (Clinical Proteomics, 2010).
Ends that are not written are not given here.

Conditions: apparently generating ITIH4-25, ref [26]

Sequence: RPGVLSSRQLGLPGPPDVPDHAAYHPF [ITIH4-27]
- Susceptibility to degradation of the synthetic peptide in plasma and serum: highest susceptibility to degradation
